Source: US8552058B2, “Application of L-n-butylphthalide in preventing and treating dementia” (CSPC Zhongqi Pharmaceutical Technology (Shijazhuang) Co., …, priority 2004, dated 2013)
Entries after “also recorded” stand apart in the source; their conditions may differ.

Assays:
[1] = test system: malondialdehyde (MDA); test: MDA content in cortex and hippocampus after continuous perfusion of Aβ (1-40); type: in vivo, Wistar rats; conditions: Aβ (1-40) rats; for MDA, hippocampus / MDA, cortex: n = 7; for MDA, hippocampus: model 1.48 ± 0.12, sham 1.13 ± 0.06; for MDA, cortex: model 1.48 ± 0.14, sham 1.10 ± 0.09
Method: Male Wistar rats, which were 10-weeks old and weighed approximately 280 grams, were used. One animal was placed in one cage, while the room temperature was kept at 23° C., with food and water freely accessible. Rats were anaesthetized with sodium pentobarbital (40 mg/kg), and were fixed to stereotaxic apparatus with the position of ventral decubitus. Head skin was cut open, a cannula for Aβ (1-40) perfusion was implanted into right ventricle. According to the stereotaxic profile of rat brain by Paxions and Watson, the implantation site was located 0.3 mm behind and 1.1 mm in the right side of anterior fontanelle, with the depth of 4.0 mm. The cannula was connected to a micro-osmotic pump. The pump was placed on the back of the rat. Aβ (1-40) was dissolved in 35% acetonitrile/0.1% trifluroacetic acid, and was continuously perfused intracerebroventricularly (i.c.v.) at 300 pmol/day, while only the solvent (35% acetonitrile/0.1% trifluroacetic acid) was perfused in the control group.
Rats were randomly classified into […] groups, with 10 animals per group. 1) the sham surgery group: only 35% acetonitrile/0.1% trifluroacetic acid+solvent was perfused into the ventricles of the rats; 2) the model group: Aβ (1-40)+solvent; 3) Aβ (1-40)+L-NBP 10 mg/kg group; 4) Aβ (1-40)+L-NBP 30 mg/kg group. Respective drug or solvent was drenched since the 2nd day after the surgery. The water maze experiment was performed on the 9-13 day after the surgery, while the platform exploration experiment was performed on the 13th day, and the working memory test was performed on the 14-16th days. Animals were decapitated to remove brains for biochemical assay on the 17th day. In all ethological tests, medicines were administered 40 minutes prior to the respective test.
Malondialdehyde (MDA) and glutathione peroxidase (GSH-Px) were determined by the same assays as above.
All results were expressed in mean±standard error. Comparison of latencies between groups in water maze experiment was performed using two-factor analysis of variance in replicate. Comparison between groups was performed using post hoc LSD or Turkey test. Platform exploration test in water maze experiment, working memory test and biochemical assay were analyzed using one-factor analysis of variance. A difference was considered significant when p<0.05.

[2] = test system: rats with permanent ligation of bilateral common carotid arteries (2-VO model); test: Morris' water maze (training latency, platform exploration) in 2-VO hypoperfusion model; type: in vivo, Wistar rats; conditions: for amelioration of impaired short-term memory and spatial orientation (overall conclusion): 2-VO rats with poor blood supply to brain, L-NBP at 10 mg/kg, 10 mg/kg

Structure (SMILES): CCCC[C@@H]1OC(=O)c2ccccc21 [L-NBP, L-n-butylphthalide]
- MDA, hippocampus ([1]; 10 mg/kg, p<0.01 vs model): 1.12 ± 0.07 nmol/mg protein
- MDA, cortex ([1]; 10 mg/kg, p<0.05 vs model): 1.06 ± 0.05 nmol/mg protein
- reduction of hippocampal MDA content ([1]; 10 mg/kg, vs model, p<0.01): 24.3%
- reduction of cortical MDA content ([1]; 10 mg/kg, vs model, p<0.05): 28.4%
- MDA, hippocampus ([1]; 30 mg/kg, p<0.05 vs model): 1.15 ± 0.07 nmol/mg protein
- MDA, cortex ([1]; 30 mg/kg, p<0.05 vs model): 1.06 ± 0.10 nmol/mg protein
- effect on cortical and hippocampal MDA content (in words) ([1]; 30 mg/kg, vs model group p<0.05): weaker than that in the 10 mg/kg group, yet were still significantly different; also recorded: a little weaker in the 30 mg/kg group than in the 10 mg/kg group, yet still significantly different
- detention time in the target quadrant (platform exploration test, 60 seconds free swimming) ([2]; 10 mg/kg oral, 2-VO rats, mean±standard error, solvent control 14.40±0.73, sham 17.73±1.19, p<0.05 vs solvent control): 17.62 ± 1.27 s
- latency (time required for finding the platform) after 5 days of training ([2]; 10 mg/kg oral, 2-VO rats, mean±standard error, solvent control 47.6±5.88, sham surgery 12.6±3.34, p<0.001 vs solvent control): 26.85 ± 5.98 s
- search strategy after 5 days of training ([2]; 10 mg/kg oral, 2-VO rats, solvent control still peripheral and random): changed from peripheral and random to purposive and linear
- amelioration of impaired short-term memory and spatial orientation (overall conclusion) [2]: could significantly ameliorate
- amelioration of impaired short-term memory and spatial orientation (overall conclusion) ([2]; listed as L-n-butylphthalide): could significantly improve; also recorded: could significantly ameliorate
